Source: US20190351069A1, “Coating of Nanoparticle Surfaces with Cyclopeptides for Improving Delivery of Agents Via the Oral Route” (Ruprecht-Karls-Universität Heidelberg, priority 2016, published 2019)
Where a SMILES comes first, the peptide text is derived from it.

Test: Stability of cell-penetrating peptides in simulated gastric and intestinal fluid (HPLC/MS)
Type: in vitro ADME
Method: Both CPPs (1 mg/mL in water) were diluted 1:1 (v/v) with either simulated gastric fluid or simulated intestinal fluid and incubated at 37° C. under constant shaking as described in the art. After 0, 15, 30 and 60 min, the samples were analyzed by HPLC/MS in order to detect the recovery of intact CPP and were compared in relation with the initial solution. • Cytotoxicity Assays • Cell Cultivation

stability in intestinal fluid (over one hour): only a moderate loss
stability in simulated gastric fluid (over one hour): high stability
remaining at 1 h, 0.5 mg/mL (simulated intestinal fluid, after one hour, 37° C., read-out: intact CPP): 47.3%
Structure (SMILES): N=C(N)NCCC[C@@H]1NC(=O)[C@H](CS)NC(=O)[C@H](CCCNC(=N)N)NC(=O)[C@H](CCCNC(=N)N)NC(=O)[C@H](CCCNC(=N)N)NC(=O)[C@H](CCCNC(=N)N)NC(=O)[C@H](CCCNC(=N)N)NC(=O)[C@H](CCCNC(=N)N)NC(=O)[C@H](CCCNC(=N)N)NC(=O)[C@H](CCCNC(=N)N)NC1=O [cyclic CPP] (cyclo(RRRRRRRRRC); ring closure inferred)
